Laboratory results published in patent US4328215A, “Method of reducing or avoiding the mutagenic activity of drugs” (The Johns Hopkins University, priority 1977, dated 1982).
Read-outs that look alike come from different tables or passages of the source. One block for each compound: values may come before it. Where a SMILES comes first, the peptide text is derived from it. Bridges are numbered along the chain shown (N, C = ends). [ ]: non-standard residue; d: D form. The star is where a group is joined. Ileψ(thiazoline)Cys = CC[C@H](C)[C@H](N)C1=N[C@H](C(=O)*)CS1; dOrn = NCCC[C@@H](N)C(=O)O

Legend:
intestinal bacteria = assay: Effect on intestinal bacterial flora of mice; assay type: in vivo
Protocol: […] Homogenates of these organs were made with 10 ml nutrient broth (Difco) and serial dilutions were plated on nutrient agar plates. Obligatory anaerobic bacteria were counted in the same manner except that the organs were homogenized in thioglycolate (Difco) medium and the agar plates were incubated in anaerobic jars. The plates were counted after incubation for 24 hours at 37° C. There were no significant differences in counts when the incubation time was extended for 48 hours. Six mice were used for each time interval.

[1] = ampicillin administered; cited from earlier work
[2] = Mutagenic metabolite of oxamniquine in urine of mice; assay type: in vivo; settings: mixture of erythromycin, bacitracin and succinyl sulfathiazole
Description: Ir also is used, though to a lesser extent, in Africa and the Mid-east for the treatment of schistosomiasis mansoni.

[3] = monkeys; oxamniquine alone; cited from earlier work
[4] = mice; oxamniquine alone; cited from earlier work

Host-mediated assay, revertants per 10^8 bacteria, controls (no CGP 4540) (S. typhimurium TA 100; in vivo): 62(±5) revertants per 10^8 bacteria
Structure (SMILES): O=C(O)CCC(=O)Nc1ccc(S(=O)(=O)Nc2nccs2)cc1 [Succinylsulfathiazole]
Bacterial flora of the host's intestines (intestinal bacteria; 1 g/kg once daily for 3 successive days, oral): reduces the bacterial flora

Structure (SMILES): C[N+]([O-])=NCO[C@@H]1O[C@H](CO)[C@@H](O)[C@H](O)[C@H]1O [cycasin]
Formation of the aglycone after administration of ampicillin [1]: prevented

Structure (SMILES): CC[C@H]1OC(=O)[C@H](C)[C@@H](O[C@H]2C[C@@](C)(OC)[C@@H](O)[C@H](C)O2)[C@H](C)[C@@H](O[C@@H]2O[C@H](C)C[C@H](N(C)C)[C@H]2O)[C@](C)(O)C[C@@H](C)C(=O)[C@H](C)[C@@H](O)[C@]1(C)O [Erythromycin]
Host mediated assay, revertants per 10^8 bacteria, controls (no CGP 4540) (S. typhimurium TA 100; antibiotic alone, 100 mg/kg oral, mice): 65 (±4) revertants per 10^8 bacteria
Number of aerobes in the large intestine (intestinal bacteria; erythromycin base 100 mg/kg single oral dose, large intestine, aerobes): little, if any, change
Number of anaerobes in the large intestine (intestinal bacteria; erythromycin base 100 mg/kg single oral dose, large intestine, anaerobes): little, if any, change
Total number of aerobic bacteria in the small intestine (intestinal bacteria; erythromycin base 100 mg/kg single oral dose, small intestine, aerobes): only a moderate reduction, of relatively short duration
Anaerobic bacteria in the small intestine (intestinal bacteria; erythromycin base 100 mg/kg single oral dose, small intestine, anaerobes): reduced to an even lesser extent than were aerobes

Structure (SMILES): CC[C@H](C)[C@H](N)C1=N[C@H](C(=O)N[C@@H](CC(C)C)C(=O)N[C@H](CCC(=O)O)C(=O)N[C@H](C(=O)N[C@H]2CCCCNC(=O)[C@H](CC(N)=O)NC(=O)[C@@H](CC(=O)O)NC(=O)[C@H](Cc3cnc[nH]3)NC(=O)[C@@H](Cc3ccccc3)NC(=O)[C@H]([C@@H](C)CC)NC(=O)[C@@H](CCCN)NC2=O)[C@@H](C)CC)CS1 [Bacitracin] ({Ileψ(thiazoline)Cys}-L[dE]IK[dOrn]I[dF]H[dD]N; lactam 4-C)
Host-mediated assay, revertants per 10^8 bacteria, controls (no CGP 4540) (S. typhimurium TA 100; bacitracin alone, 220 mg/kg, mice): 64(±9) revertants per 10^8 bacteria
Host-mediated assay, revertants per 10^8 bacteria, controls (no CGP 4540) (S. typhimurium TA 100; bacitracin alone, 440 mg/kg, mice): 71(±5) revertants per 10^8 bacteria

Structure (SMILES): CC(C)NCC1CCc2cc(CO)c([N+](=O)[O-])cc2N1 (stereo not shown) [oxamniquine]
Appearance of the mutagenic metabolite with coadministered antibacterial agents [2]: completely eliminates the appearance of the mutagenic metabolite
Mutagenic metabolite in urine [3]: gives rise to the appearance of a mutagenic metabolite in the urine
Mutagenic metabolite in urine [4]: gives rise to the appearance of a mutagenic metabolite in the urine
